According to ChEMBL document CHEMBL4400521, “Plasma kallikrein cleaves and inactivates apelin-17: Palmitoyl- and PEG-extended apelin-17 analogs as metabolically stable blood pressure-lowering agents” (Eur J Med Chem, 2019):
Non-standard residues stand in square brackets, D forms with d. Residues, ends and D or L forms follow the SMILES beside them. *: point of attachment. Phe(4-Br) = N[C@@H](Cc1ccc(Br)cc1)C(=O)O; Fmoc = O=C(OCC1c2ccccc2-c2ccccc21)*; PEG6 = NCCOCCOCCOCCOCCOCCOCCC(=O)O; Palmitoyl = CCCCCCCCCCCCCCCC(=O)*; NMeL = CN[C@@H](CC(C)C)C(=O)O; Nle = CCCC[C@H](N)C(=O)O; Aib = CC(C)(N)C(=O)O

Key:
[1] = test system: Mus musculus; test: Blood pressure lowering activity in anesthetized mouse assessed as change in mean arterial blood pressure at 1.4 uM/kg, iv; type: functional
[2] = target: T1, Plasma kallikrein (KLKB1) (Homo sapiens, UniProt P03952); test: (§1) Substrate activity at recombinant human C-terminal His6-tagged KLKB1 (Pro19 to Ser262 residues) expressed in mammalian expression system assessed as compound half life by LC-MS analysis; type: ADME
[3] = target: T2, Apelin receptor (Homo sapiens, UniProt P35414); test: Activation of recombinant human APJ expressed in rat Chem5 cells co-expressing Galpha15 by Calcium 6-QF dye based fluorescence assay; type: functional, cell-based
T2 sequence (P35414 whole entry): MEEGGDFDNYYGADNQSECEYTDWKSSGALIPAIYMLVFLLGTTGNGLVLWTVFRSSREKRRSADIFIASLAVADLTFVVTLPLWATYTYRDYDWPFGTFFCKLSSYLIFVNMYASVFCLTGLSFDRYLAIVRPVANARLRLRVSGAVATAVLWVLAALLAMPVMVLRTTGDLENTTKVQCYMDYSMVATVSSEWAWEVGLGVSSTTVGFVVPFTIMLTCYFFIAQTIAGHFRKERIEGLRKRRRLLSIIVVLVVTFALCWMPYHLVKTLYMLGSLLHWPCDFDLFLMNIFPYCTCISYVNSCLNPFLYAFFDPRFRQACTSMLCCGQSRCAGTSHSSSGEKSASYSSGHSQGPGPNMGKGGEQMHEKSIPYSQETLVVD

[4] = target: Neprilysin (NEP) (Homo sapiens, UniProt P08473); test: Substrate activity at recombinant human NEP (Tyr52 to Trp750 residues) expressed in HEK293 cells assessed as compound half life by LC-MS analysis; type: ADME, cell-based
[5] = target: T1, Plasma kallikrein (KLKB1); test: Substrate activity at KLKB1 in human plasma assessed as compound half life by LC-MS analysis; type: ADME, cell-free
[6] = target: T3, Plasma kallikrein (Homo sapiens, UniProt P03952); test: Substrate activity at recombinant human C-terminal His6-tagged KLKB1 (Pro19 to Ser262 residues) expressed in mammalian expression system assessed as enzyme-mediated degradation onset time at 1 mM by MALDI-TOF MS analysis; type: ADME; conditions: 1000 µM
[7] = target: Neprilysin (Homo sapiens, UniProt P08473); test: Substrate activity at recombinant human NEP (Tyr52 to Trp750 residues) expressed in HEK293 cells assessed as enzyme-mediated degradation onset time at 1 mM by MALDI-TOF MS analysis; type: ADME, cell-based; conditions: hek293, 1000 µM
[8] = target: T4, Apelin receptor (Rattus norvegicus, UniProt Q9JHG3); test: Displacement of [125I]-(Glp1,Nle11,[…])apelin-13 from recombinant rat EGFP-fused apelin receptor expressed in CHO cell membrane measured after 3 hrs; type: cell membranes
T4 sequence (Q9JHG3 whole entry): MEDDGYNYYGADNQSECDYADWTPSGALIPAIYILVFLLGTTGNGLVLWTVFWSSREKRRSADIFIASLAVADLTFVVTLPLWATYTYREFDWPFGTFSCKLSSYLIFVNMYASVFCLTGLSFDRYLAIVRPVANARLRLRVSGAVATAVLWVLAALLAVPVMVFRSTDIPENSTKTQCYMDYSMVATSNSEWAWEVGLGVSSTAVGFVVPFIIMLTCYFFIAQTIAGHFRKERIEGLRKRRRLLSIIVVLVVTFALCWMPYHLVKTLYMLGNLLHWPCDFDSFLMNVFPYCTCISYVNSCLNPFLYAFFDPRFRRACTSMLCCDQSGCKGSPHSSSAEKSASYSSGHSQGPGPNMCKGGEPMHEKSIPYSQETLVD

[9] = target: T3, Plasma kallikrein; test: Substrate activity at recombinant human C-terminal His6-tagged KLKB1 (Pro19 to Ser262 residues) expressed in mammalian expression system assessed as Vmax measured after 30 to 60 mins by LC-MS analysis; type: ADME
[10] = target: T1, Plasma kallikrein (KLKB1); test: Substrate activity at recombinant human C-terminal His6-tagged KLKB1 (Pro19 to Ser262 residues) expressed in mammalian expression system assessed as Km measured after 30 to 60 mins by LC-MS analysis; type: ADME
[11] = target: T3, Plasma kallikrein; test: Substrate activity at human KLKB1 assessed as ratio of Kcat to Km by spectrofluorimetric method; type: ADME
[12] = target: T3, Plasma kallikrein; test: Substrate activity at recombinant human C-terminal His6-tagged KLKB1 (Pro19 to Ser262 residues) expressed in mammalian expression system assessed as Kcat measured after 30 to 60 mins by LC-MS analysis; type: ADME
[13] = target: T3, Plasma kallikrein; test: as §1; type: ADME

T3 sequence (P03952 20-390 limits assumed): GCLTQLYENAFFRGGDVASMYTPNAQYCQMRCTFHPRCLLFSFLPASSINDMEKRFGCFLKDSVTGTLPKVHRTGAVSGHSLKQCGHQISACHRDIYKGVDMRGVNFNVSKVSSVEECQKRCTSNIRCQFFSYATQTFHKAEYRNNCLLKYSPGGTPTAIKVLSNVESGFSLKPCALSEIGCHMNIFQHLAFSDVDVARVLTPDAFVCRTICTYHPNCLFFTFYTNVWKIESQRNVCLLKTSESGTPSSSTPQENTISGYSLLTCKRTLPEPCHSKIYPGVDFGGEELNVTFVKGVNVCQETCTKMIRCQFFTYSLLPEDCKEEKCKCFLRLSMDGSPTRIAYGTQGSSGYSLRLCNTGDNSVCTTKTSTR
T3 sequence (P03952 391-638 limits assumed): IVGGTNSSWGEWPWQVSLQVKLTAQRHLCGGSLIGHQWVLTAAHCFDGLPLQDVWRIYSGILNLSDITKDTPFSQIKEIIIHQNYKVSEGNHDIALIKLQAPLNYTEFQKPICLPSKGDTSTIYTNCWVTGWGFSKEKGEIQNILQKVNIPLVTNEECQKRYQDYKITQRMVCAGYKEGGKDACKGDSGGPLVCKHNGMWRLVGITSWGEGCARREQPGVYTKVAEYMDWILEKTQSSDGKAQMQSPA
T1 sequence (P03952 20-390 limits assumed): as the sequence (P03952 20-390 limits assumed) above
T1 sequence (P03952 391-638 limits assumed): as the sequence (P03952 391-638 limits assumed) above
Neprilysin, sequence (P08473 whole entry, the tested form may be a part): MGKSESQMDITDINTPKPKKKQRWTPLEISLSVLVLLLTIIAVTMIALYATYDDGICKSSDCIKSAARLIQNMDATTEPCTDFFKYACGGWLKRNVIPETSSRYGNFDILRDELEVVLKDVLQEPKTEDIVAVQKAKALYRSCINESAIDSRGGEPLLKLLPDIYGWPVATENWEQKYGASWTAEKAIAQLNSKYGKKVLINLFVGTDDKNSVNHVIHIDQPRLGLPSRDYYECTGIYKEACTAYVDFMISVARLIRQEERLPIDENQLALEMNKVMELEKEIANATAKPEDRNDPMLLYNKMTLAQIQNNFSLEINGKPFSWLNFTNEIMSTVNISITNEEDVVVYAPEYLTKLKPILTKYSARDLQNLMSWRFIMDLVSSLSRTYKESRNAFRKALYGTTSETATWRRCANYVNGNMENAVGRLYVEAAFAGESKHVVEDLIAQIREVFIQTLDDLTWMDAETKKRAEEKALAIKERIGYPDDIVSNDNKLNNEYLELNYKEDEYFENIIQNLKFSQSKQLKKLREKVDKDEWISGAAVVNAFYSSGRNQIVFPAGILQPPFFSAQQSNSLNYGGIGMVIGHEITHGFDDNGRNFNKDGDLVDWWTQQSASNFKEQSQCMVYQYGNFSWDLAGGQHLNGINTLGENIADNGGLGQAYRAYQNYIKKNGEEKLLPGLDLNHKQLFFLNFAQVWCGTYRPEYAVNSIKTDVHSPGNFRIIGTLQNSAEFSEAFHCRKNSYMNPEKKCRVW
Neprilysin (NEP), sequence (P08473 whole entry): as the sequence (P08473 whole entry, the tested form may be a part) above

Compound	Activity [1]	half-life [2]	EC50 [3]	half-life [4]	half-life [5]	Time [6]	Time [7]	IC50 [8]	Vmax [9]	Km [10]	Kcat/Km [11]	Kcat [12]	t1/2 [13]
CCCC[C@H](NC(=O)[C@@H]1CCCN1C(=O)CNC(=O)[C@H](CCCCN)NC(=O)[C@H](Cc1c[nH]cn1)NC(=O)[C@H](CO)NC(=O)[C@H](CC(C)C)N(C)C(=O)[C@H](CCCNC(=N)N)NC(=O)[C@@H]1CCCN1C(=O)[C@H](CCCNC(=N)N)NC(=O)[C@H](CCC(N)=O)NC(=O)[C@H](CCCNC(=N)N)NC(=O)[C@H](CCCNC(=N)N)NC(=O)[C@H](Cc1ccccc1)NC(=O)[C@@H](N)CCCCN)C(=O)NC(C)(C)C(=O)N[C@@H](Cc1ccc(Br)cc1)C(=O)O (H-KFRRQRPR[NMeL]SHKGP[Nle][Aib][Phe(4-Br)]-OH)	-36 mmHg	> 30 h	4.9 nM	0.9 h	1.2 h								
CCCCCCCCCCCCCCCC(=O)N[C@@H](CCCCN)C(=O)N[C@@H](Cc1ccccc1)C(=O)N[C@@H](CCCNC(=N)N)C(=O)N[C@@H](CCCNC(=N)N)C(=O)N[C@@H](CCC(N)=O)C(=O)N[C@@H](CCCNC(=N)N)C(=O)N1CCC[C@H]1C(=O)N[C@@H](CCCNC(=N)N)C(=O)N(C)[C@@H](CC(C)C)C(=O)N[C@@H](CO)C(=O)N[C@@H](Cc1cnc[nH]1)C(=O)N[C@@H](CCCCN)C(=O)NCC(=O)N1CCC[C@H]1C(=O)N[C@@H](CCCC)C(=O)NC(C)(C)C(=O)N[C@@H](Cc1ccc(Br)cc1)C(=O)O (Palmitoyl-KFRRQRPR[NMeL]SHKGP[Nle][Aib][Phe(4-Br)]-OH)	-12 mmHg	> 30 h		2.1 h	20.5 h	2 h	> 36 h						
CSCC[C@H](NC(=O)[C@@H]1CCCN1C(=O)CNC(=O)[C@H](CCCCN)NC(=O)[C@H](Cc1cnc[nH]1)NC(=O)[C@H](CO)NC(=O)[C@H](CC(C)C)NC(=O)[C@H](CCCNC(=N)N)NC(=O)[C@@H]1CCCN1C(=O)[C@H](CCCNC(=N)N)NC(=O)[C@H](CCC(N)=O)NC(=O)[C@H](CCCNC(=N)N)NC(=O)[C@H](CCCNC(=N)N)NC(=O)[C@H](Cc1ccccc1)NC(=O)[C@@H](N)CCCCN)C(=O)N1CCC[C@H]1C(=O)N[C@@H](Cc1ccccc1)C(=O)O	-20 mmHg	0.4 h		0.4 h	0.02 h	< 0.5 h	< 0.5 h	0.025 nM	2.947 µmol/min				
CCCC[C@H](NC(=O)[C@@H]1CCCN1C(=O)CNC(=O)[C@H](CCCCN)NC(=O)[C@H](Cc1cnc[nH]1)NC(=O)[C@H](CO)NC(=O)[C@H](CC(C)C)NC(=O)[C@H](CCCNC(=N)N)NC(=O)[C@@H]1CCCN1C(=O)[C@H](CCCNC(=N)N)NC(=O)[C@H](CCC(N)=O)NC(=O)[C@H](CCCNC(=N)N)NC(=O)[C@H](CCCNC(=N)N)NC(=O)[C@H](Cc1ccccc1)NC(=O)[C@H](CCCCN)NC(=O)CCOCCOCCOCCOCCOCCOCCNC(=O)OCC1c2ccccc2-c2ccccc21)C(=O)NC(C)(C)C(=O)N[C@@H](Cc1ccc(Br)cc1)C(=O)O ({Fmoc-PEG6}-KFRRQRPRLSHKGP[Nle][Aib][Phe(4-Br)]-OH)	-48 mmHg	> 30 h	6.3 nM		18 h	1 h	12 h						
CCCC[C@H](NC(=O)[C@@H]1CCCN1C(=O)CNC(=O)[C@H](CCCCN)NC(=O)[C@H](Cc1cnc[nH]1)NC(=O)[C@H](CO)NC(=O)[C@H](CC(C)C)NC(=O)[C@H](CCCNC(=N)N)NC(=O)[C@@H]1CCCN1C(=O)[C@H](CCCNC(=N)N)NC(=O)[C@H](CCC(N)=O)NC(=O)[C@@H](N)CCCNC(=N)N)C(=O)NC(C)(C)C(=O)N[C@@H](Cc1ccc(Br)cc1)C(=O)O (H-RQRPRLSHKGP[Nle][Aib][Phe(4-Br)]-OH)	3 mmHg						> 36 h						
H-SLSSMTRVVGG-OH										2.4 µM	0.4 ×10⁴ /Ms	0.001 s⁻¹	
CCCC[C@H](NC(=O)[C@@H]1CCCN1C(=O)CNC(=O)[C@H](CCCCN)NC(=O)[C@H](Cc1cnc[nH]1)NC(=O)[C@H](CO)NC(=O)[C@H](CC(C)C)N(C)C(=O)[C@H](CCCNC(=N)N)NC(=O)[C@@H]1CCCN1C(=O)[C@H](CCCNC(=N)N)NC(=O)[C@H](CCC(N)=O)NC(=O)[C@H](CCCNC(=N)N)NC(=O)[C@H](CCCNC(=N)N)NC(=O)[C@H](Cc1ccccc1)NC(=O)[C@H](CCCCN)NC(=O)CCOCCOCCOCCOCCOCCOCCNC(=O)OCC1c2ccccc2-c2ccccc21)C(=O)NC(C)(C)C(=O)N[C@@H](Cc1ccc(Br)cc1)C(=O)O ({Fmoc-PEG6}-KFRRQRPR[NMeL]SHKGP[Nle][Aib][Phe(4-Br)]-OH)	-53 mmHg	> 30 h	2.5 nM		27 h	2 h	> 36 h						
CCCCCCCCCCCCCCCC(=O)N[C@@H](CCCCN)C(=O)N[C@@H](Cc1ccccc1)C(=O)N[C@@H](CCCNC(=N)N)C(=O)N[C@@H](CCCNC(=N)N)C(=O)N[C@@H](CCC(N)=O)C(=O)N[C@@H](CCCNC(=N)N)C(=O)N1CCC[C@H]1C(=O)N[C@@H](CCCNC(=N)N)C(=O)N[C@@H](CC(C)C)C(=O)N[C@@H](CO)C(=O)N[C@@H](Cc1cnc[nH]1)C(=O)N[C@@H](CCCCN)C(=O)NCC(=O)N1CCC[C@H]1C(=O)N[C@@H](CCCC)C(=O)NC(C)(C)C(=O)N[C@@H](Cc1ccc(Br)cc1)C(=O)O (Palmitoyl-KFRRQRPRLSHKGP[Nle][Aib][Phe(4-Br)]-OH)	-41 mmHg	1.5 h		1 h	4.5 h	1 h	1 h						
CCCC[C@H](NC(=O)[C@@H]1CCCN1C(=O)CNC(=O)[C@H](CCCCN)NC(=O)[C@H](Cc1c[nH]cn1)NC(=O)[C@H](CO)NC(=O)[C@H](CC(C)C)NC(=O)[C@H](CCCNC(=N)N)NC(=O)[C@@H]1CCCN1C(=O)[C@H](CCCNC(=N)N)NC(=O)[C@H](CCC(N)=O)NC(=O)[C@H](CCCNC(=N)N)NC(=O)[C@H](CCCNC(=N)N)NC(=O)[C@H](Cc1ccccc1)NC(=O)[C@@H](N)CCCCN)C(=O)NC(C)(C)C(=O)N[C@@H](Cc1ccc(Br)cc1)C(=O)O (H-KFRRQRPRLSHKGP[Nle][Aib][Phe(4-Br)]-OH)	-32 mmHg		4.1 nM	0.7 h	0.3 h	< 0.5 h	< 1 h						1 h
CCCC[C@H](NC(=O)[C@@H]1CCCN1C(=O)CNC(=O)[C@H](CCCCN)NC(=O)[C@H](Cc1cnc[nH]1)NC(=O)[C@H](CO)NC(=O)[C@H](CC(C)C)N(C)C(=O)[C@H](CCCNC(=N)N)NC(=O)[C@@H]1CCCN1C(=O)[C@H](CCCNC(=N)N)NC(=O)[C@H](CCC(N)=O)NC(=O)[C@@H](N)CCCNC(=N)N)C(=O)NC(C)(C)C(=O)N[C@@H](Cc1ccc(Br)cc1)C(=O)O (H-RQRPR[NMeL]SHKGP[Nle][Aib][Phe(4-Br)]-OH)	-15 mmHg												
